Experimental data taken from patent US11123355B2, “Antiviral benzyl-amine phosphodiamide compounds” (Merck Sharp & Dohme Corp., priority 2016, dated 2021).
pIC50: −log10 of the molar value. Where two headings read alike, the source gives them in different places.

Key:
[1] = Pharmacokinetic Studies in Dogs - In Vivo Dog PK; design: species or system beagle dogs; conditions: dog PBMCs at 24 h following a 10 mg/kg P.O. dose of the prodrug
Method: Pharmacokinetic Studies in Dogs—In Vivo Dog PK
Prodrugs were administered to beagle dogs through intravenous (IV) and oral (P.O.) administrations in a non-crossover manner. The IV dose was prepared in 20% hydroxypropyl β-cyclodextrin (HPBCD) or polyethylene glycol 200:ethanol:water (70:10:20 v/v/v). The dose was administered via cephalic or saphenous vein. The P.O. dose was prepared in 10% polysorbate 80 (Tween 80) and was administered via gavage.
Blood samples were serially collected following dose administration for up to 48 hr and plasma was separated by centrifugation. The concentrations of prodrugs in dog plasma were determined by a LC-MS/MS assay following a protein precipitation step and addition of an appropriate internal standard (labetalol, imipramine or diclofenac). Quantification was done by determining peak area-ratios of the prodrugs and tenofovir to the internal standard. Additional blood sample(s) was collected following dose administration for up to 24 hr. […] The concentrations of tenofovir and/or its phosphate conjugate(s) in PBMCs were determined by an LC-MS/MS assay following a protein precipitation step and addition of an appropriate internal standard (labetalol, imipramine or diclofenac). Quantification was done by determining peak area-ratios of tenofovir and/or its phosphate conjugate(s) to the internal standard.
Pharmacokinetic parameters were obtained using non-compartmental methods (Watson®). The area under the plasma concentration-time curve (AUC0-t) was calculated from the first time point (0 min) up to the last time point with measurable drug concentration using the linear trapezoidal or linear/log-linear trapezoidal rule. The IV plasma clearance was calculated by dividing the dose by AUC0-inf. The terminal half-life of elimination was determined by unweighted linear regression analysis of the log-transformed data. […] The volume of distribution at steady state (Vdss) was obtained from the product of plasma clearance and mean residence time (determined by dividing the area under the first moment curve by the area under the curve). […]

[2] = Prodrug Stability Assay in Bio-Relevant Media (FaSSIF with Pancreatin); type: in vitro ADME; conditions: 0.5 mg/mL Pancreatin in FaSSIF, 37° C.; HPLC peak area of prodrug at 5 h divided by that at 0 h
Method: Prodrug Stability Assay in Bio-Relevant Media
The following assay was employed to evaluate the stability of the prodrugs in simulated gastrointestinal tract conditions. Preparation of fasted state simulated intestinal fluid (FaSSIF) using Phares SIF Powder was carried out according to protocols from Phare Drug Delivery AG (Baselland, Switzerland). For sample preparation, 10 μL stock solutions (10 mM) of prodrug substance in DMSO was added to 990 μL of 0.5 mg/mL Pancreatin solution (Fisher CAS #8049-47-6) in FaSSIF. Two samples were prepared for each compound. If the sample was a clear solution, it was directly analyzed by HPLC. If the sample was not clear, the sample was diluted with 100% MeCN, maintained at 37° C. and observed 5 h later. If the sample was clear, HPLC analysis was directly performed. If the sample was still not clear, the sample was diluted with 100% ACN and assayed by HPLC. All the samples were vortexed for 3 min and observed before injection. For the diluted samples, the area is multiplied by a dilution factor when the data is analyzed. The analysis was carried out with an Agilent 1100 series HPLC with autosampler. The column was a Poroshell 120 EC-C18, 4.6×50 mm, 2.7 μm. The flow rate was 1.8 mL/min, and the injection volume was 5 or 10 μL. UV detection was in the range 210-400 nm. The mobile phase consisted of solvent A (water plus 10 mM tetrabutylammonium bromide) and solvent B (acetonitrile) with a gradient of: 90% solvent A at 0 min, changing to 95% solvent B over 6 min, maintaining for 1.5 min, then reverting to 90% solvent A over 1.6 min. The HPLC peak area of the prodrug at 5 h was divided by the HPLC peak area of the prodrug at 0 h, to generate the % claimed parent ratio, which is summarized in Table 2 for gastrointestinal (GI) Tract stability.

[3] = tested on: HIV-1 (H9/IIB strain); experiment: Multiple Round HIV-1 Infection Assay (Viking Assay) in MT4-GFP cells; type: cell-based; conditions: inhibition of reproductive ratio R0
Summary of the method: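 Inhibition of the reproductive ratio R0, derived from the rise in GFP-positive cells between ~48 h and ~72 h post-infection, was fitted by 4-parameter regression to give IC50. Cells infected at MOI ~0.01 were exposed to compound (typically 8.4 μM–0.42 nM final) in 10% or 50% normal human serum.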

[4] = MT4-GFP cells infected with HIV-1, 10% normal human serum, read-out: Viking, IC50 (10% NHS)
[5] = MT4-GFP cells infected with HIV-1, 50% normal human serum, read-out: Viking, IC50 (50% NHS)

| Compound | In Vivo Dog PK (μM): TFV-DP concentrations in dog PBMCs [1] | GI Tract stability (%) [2] | pIC50 [3, 4] | pIC50 [3, 5] |
| --- | --- | --- | --- | --- |
| CCCOC(=O)C(C)(C)N[P@@](=O)(CO[C@H](C)Cn1cnc2c(N)ncnc21)N[C@H](c1ccc(OC(F)(F)F)cc1)C(F)(F)F (single isomer, unassigned) [Example 27A] | 0.8 µM | 79.5% | 8.85 | 8.17 |
| CCCOC(=O)C(C)(C)NP(=O)(CO[C@H](C)Cn1cnc2c(N)ncnc21)N[C@@H](C)c1ccc(Cl)cc1 (stereo partly drawn) [Example 13A, propyl 2-(((R)-((((R)-1-(6-amino-9H-purin-9-yl)propan-2-yl)oxy)methyl)(((S)-1-(4-chlorophenyl)ethyl)amino)phosphoryl)ami-no)-2-methylpropanoate and propyl 2-(((S)-((((R)-1-(6-amino-9H-purin-9-yl)propan-2-yl)oxy)methyl)(((S)-1-(4-chlorophenyl)ethyl)amino)phosphoryl)ami-no)-2-methylpropanoate] | 15.9 µM | 98.5% | 8.08 | 7.12 |
| propyl 2-(((R)-((((R)-1-(6-amino-9H-purin- 9-yl)propan-2-yl)oxy)methyl)((4- isopropylbenzyl)amino)phosphoryl)amino)- 2-methylpropanoate and propyl 2-(((S)-((((R)-1-(6-amino-9H-purin- 9-yl)propan-2-yl)oxy)methyl)((4- isopropylbenzyl)amino)phosphoryl)amino)- 2-methylpropanoate [Example 5A] | 7.7 µM | 96.3% | 8.51 | 7.77 |
| propyl 2-(((R)-((((R)-1-(6-amino-9H-purin- 9-yl)propan-2-yl)oxy)methyl)(((R)-2,2,2- trifluoro-1-(p- tolyl)ethyl)amino)phosphoryl)amino)-2- methylpropanoate and propyl 2-(((S)-((((R)-1-(6-amino-9H-purin- 9-yl)propan-2-yl)oxy)methyl)(((R)-2,2,2- trifluoro-1-(p- tolyl)ethyl)amino)phosphoryl)amino)-2- methylpropanoate [Example 26A] |  | 75.3% | 8.33 | 7.35 |
